Where two headings read alike, the source gives them in different places.
Assays:
[1] = Pharmacokinetic determination in SD rats; settings: rat, in vivo, po, male SD rats, p.o. 5 mg/kg; for MRT inf: read-out: MRT 0-∞
Protocol: To investigate the pharmacokinetic behaviours of the example compounds in both plasma and brain of SD rats (test animals) following oral administration at a dose of 5 mg/kg.
(§1) 2.1 Test drugs: The example compounds of the present invention, made in house.
2.2 Test animals: SD Rat, male.
24 SD Rats, male; p.o. respectively at a dose of 5 mg/kg and an administration volume of 10 mL/kg after the rats were fasted overnight.
(§2) Formulation of a drug for oral administration: 0.5% CMC-Na (1% Tween 80).
(§3) 0.50 g of sodium carboxymethyl cellulose (CMC-Na, viscosity: 800-1200 Cps) was weighed and dissolved in 99 mL of purified water, and 1 ml of Tween 80 was added. The components were mixed thoroughly under stirring to form a clear solution.
The example compound was weighed into a 100 mL glass vial, 80 mL of the solution was added, and the mixture was subjected to ultrasound treatment for 10 minutes to obtain a homogeneous suspension with a concentration of 0.5 mg/mL.
(§4) After the test animals were euthanised by CO2, blood samples were collected from the heart and brain tissues were harvested at 0.25 h, 0.5 h, 1 h, 2 h, 4 h, 6 h, 8 h, and 24 h post-dose. Blood was placed in EDTA-2K tubes, and centrifuged at 6000 rpm for 6 min at 4°C to separate the plasma. Brain tissues were rinsed with pre-cold PBS, blotted dry, and weighed. Both plasma and brain samples were stored at -80°C. The animals were fed 4 h after administration.
(§5) • 3) 40 uL of plasma sample was precipitated with 160 uL of acetonitrile, mixed, and centrifuged at 3500 × g for 5-20 min. Brain tissues were diluted, homogenised and centrifuged. • 4) 100 uL of the treated supernatant solution was taken for LC/MS/MS analysis to determine the concentration of the test compounds.
(§6) • Liquid phase conditions: Shimadzu LC-20AD pump • Mass spectrometry conditions: AB Sciex API 4000 mass spectrometer • Chromatographic column: Phenomenex Gemiu 5 um C18 50 × 4.6 mm • Mobile phase: solution A: 0.1% formic acid in water, solution B: acetonitrile • Flow rate: 0.8 mL/min • Elution time: 0-4.0 min, with eluents as follows:
(§7) The main pharmacokinetic parameters were calculated using WinNonlin 8.1.

M4 receptor = biological target: T1, M4 receptor (Homo sapiens, UniProt P08173); assay: Calcium flux (FLIPR) potentiation assay in cells stably expressing M4 receptor; type: cell-based
T1 construct: expressed in transfected cells
T1 sequence (P08173 1-479): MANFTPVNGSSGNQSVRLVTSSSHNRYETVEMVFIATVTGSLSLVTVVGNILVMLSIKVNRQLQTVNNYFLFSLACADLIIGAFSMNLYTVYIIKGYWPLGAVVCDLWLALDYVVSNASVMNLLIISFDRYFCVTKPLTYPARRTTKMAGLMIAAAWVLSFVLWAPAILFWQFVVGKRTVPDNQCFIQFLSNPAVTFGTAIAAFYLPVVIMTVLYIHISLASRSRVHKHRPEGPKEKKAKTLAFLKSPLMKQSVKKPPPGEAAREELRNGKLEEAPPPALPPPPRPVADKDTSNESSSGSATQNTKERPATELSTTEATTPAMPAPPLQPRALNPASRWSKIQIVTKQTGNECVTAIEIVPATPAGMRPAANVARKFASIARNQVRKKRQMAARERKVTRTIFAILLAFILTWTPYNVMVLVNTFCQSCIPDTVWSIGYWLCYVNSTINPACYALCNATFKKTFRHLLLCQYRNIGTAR
How it was run: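 CHO-K1 cells co-expressing Gα15, loaded with Calcium 6 dye 1 h at room temperature, preincubated 2 min with compound ([…]), then challenged with acetylcholine at EC20. Peak fluorescence expressed as % activation between DMSO and ACh EC100 controls.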

[2] = Pharmacokinetic determination in Balb/c mice; settings: mouse, in vivo, po, male Balb/c mice, p.o. 5 mg/kg; for MRT inf: read-out: MRT 0-∞
Protocol: To investigate the pharmacokinetic behaviours of the example compounds in both plasma and brain of Balb/c mice (test animals) following oral administration at a dose of 5 mg/kg.
as §1
2.2 Test animals: Balb/c Mouse, male.
24 Balb/c mice, male; p.o. respectively at a dose of 5 mg/kg and an administration volume of 10 mL/kg after the mice were fasted overnight.
as §2, §3
The example compound was weighed into a 4-mL glass vial, 2.4 mL of the solution was added, and the mixture was subjected to ultrasound treatment for 10 minutes to obtain a homogeneous suspension with a concentration of 0.5 mg/mL.
as §4
as §5, with “1)” for “3)”, “2)” for “4)”
as §6, §7

[3] = six weeks of dosing, cited from earlier work
[4] = in vivo; cited from earlier work
[5] = CHO-K1/M4/Gα15 cells, potentiation of acetylcholine (EC20) calcium flux, read-out: M4 FLIPR EC50

| AUC(0-inf) [1] [ng·h/mL] | Cmax [1] [ng/mL] | Tmax [1] [h] | MRT inf [1] [h] | EC50 (M4 receptor; [5]) [nM] | AUC(0-inf) [2] [ng·h/mL] | Cmax [2] [ng/mL] | Tmax [2] [h] | MRT inf [2] [h] | SMILES | mean reduction in the Positive and Negative Syndrome Scale (PANSS) total score from baseline ([3]; 20 mg twice daily) [points] | mean reduction in the Positive and Negative Syndrome Scale (PANSS) total score from baseline ([3]; 30 mg once daily) [points] | learning deficits induced by the NMDA receptor antagonist MK-801 [4] | EC50 (M4 receptor) [nM] |
| --- | --- | --- | --- | --- | --- | --- | --- | --- | --- | --- | --- | --- | --- |
| 17500 | 4520 | 2 | 2.7 | 72.4 | 7370 | 2560 | 0.5 | 2.5 | Cc1c2c(c3ncnn3c1C)CN(C(=O)OC1CN(c3ccnc(C(F)(F)F)c3)C1)C2 [Example 32, 1-(2-(Trifluoromethyl)pyridin-4-yl)azetidin-3-yl 5,6-dimethyl-7,9-dihydro-8H-pyrrolo[3,4-c][1,2,4]triazolo[1,5-a]pyridine-8-carboxylate] |  |  |  |  |
|  |  |  |  |  |  |  |  |  | Cc1cc(C)c2c(n1)CN(C(=O)CC1CN(c3ccnc(C(F)(F)F)c3)C1)C2 [CVL-231] | 17.9 | 19.5 |  |  |
|  |  |  |  |  |  |  |  |  | Cc1nnc2sc(C(=O)NCc3ccc(S(=O)(=O)C(F)(F)F)cc3)c(N)c2c1C [VU0467154] |  |  | improved learning deficits |  |
| 10800 | 2450 | 2 | 2.6 | 13.9 | 2540 | 1950 | 0.25 | 1.2 | Cc1c2c(c3ncnn3c1C)CN(C(=O)CC1CN(c3ccnc(OC(F)F)c3)C1)C2 [Example 52] |  |  |  |  |
| 11000 | 1710 | 2 | 4.6 | 85.8 | 4790 | 1890 | 0.5 | 1.4 | Cc1c2c(c3ncnn3c1C)CN(C(=O)CC1CN(c3ncc(C(F)(F)F)cn3)C1)C2 [Example 144, 1-(5,6-Dimethyl-7,9-dihydro-8H-pyrrolo[3,4-c][1,2,4]triazolo[1,5-a]pyridin-8-yl)-2-(1-(5-(trifluoromethyl)pyrimidin-2-yl)azetidin-3-yl)ethan-1-one] |  |  |  |  |
| 34800 | 3110 | 2 | 5.8 |  | 6130 | 1550 | 0.5 | 2.6 | Cc1c2c(c3ncnn3c1C)CN(C(=O)OC1CN(c3ccnc(C(F)F)c3)C1)C2 [Example 122] |  |  |  |  |

| SMILES | AUC(0-inf) [1] [ng·h/mL] | Cmax [1] [ng/mL] | Tmax [1] [h] | MRT inf [1] [h] | EC50 (M4 receptor; [5]) [nM] | AUC(0-inf) [2] [ng·h/mL] | Cmax [2] [ng/mL] | Tmax [2] [h] | MRT inf [2] [h] | mean reduction in the Positive and Negative Syndrome Scale (PANSS) total score from baseline ([3]; 20 mg twice daily) [points] | mean reduction in the Positive and Negative Syndrome Scale (PANSS) total score from baseline ([3]; 30 mg once daily) [points] | learning deficits induced by the NMDA receptor antagonist MK-801 [4] | EC50 (M4 receptor) [nM] |
| --- | --- | --- | --- | --- | --- | --- | --- | --- | --- | --- | --- | --- | --- |
| Cc1cn2nc(N3CC(OC(=O)N4Cc5c(C)c(C)n6ncnc6c5C4)C3)ccc2n1 [Example 105] | 16300 | 2680 | 1 | 4.3 |  | 10200 | 1570 | 0.5 | 4.3 |  |  |  | 19.9 |

Source: patent EP4810493A1, “HETEROCYCLIC CARBONYL DERIVATIVE MODULATOR, PREPARATION METHOD THEREFOR, AND USE THEREOF” (Shanghai Hansoh Biomedical Co., Ltd., priority 2023, dated 2025)
